The text below walks through data of PMC7503308, “A Novel Urease Inhibitor of Ruminal Microbiota Screened through Molecular Docking” (International Journal of Molecular Sciences, 2020).

What is called IC50 is the point on the concentration scale where inhibition reaches its midpoint. A low value points to greater potency.

One data set deals with ruminal microbiota. Description: Chemical degradation rate of compound in ruminal microbial fermentation (UPLC-HRMS). The note with it: 100 μM. As for the experimental part:
The generation fermentation experiments were performed in anaerobic tubes containing 5 mL of an anaerobic medium, and in total, six generations of fermentation were performed. Altogether 54 tubes were prepared with nine tubes for each generation of fermentation. […] For the AHA treated group, the AHA working solution was prepared by diluting 3.76 mg AHA with 10 mL of methanol (5000 μM AHA). […] For the control group, the working solution contained only the solvent (methanol). All the working solutions were filtered by 0.22 μm of a membrane filter (Millipore Express PES Membrane, MILLEX GP). For each group, 100 µL of the working solution was added to each tube to mix with the anaerobic medium. […] Before the inoculation of each tube in each generation with fresh rumen fluid, 100 µL of the anaerobic urea solution was extracted from the anaerobic bottle using a syringe and filtered through 0.22 μm membrane filters, and then injected to the anaerobic tube to make the urea concentration at 16.65 mM in the tube. […] The NH4-N and Urea-N concentration was measured by the Berthelot alkaline phenol-hypochlorite method and the diacetyl monoxime method kit (Nanjing Jiancheng Co., Nanjing, China) following the manufacturer’s protocol. […]

For the next data set, the system named is ruminal microbial urease. Description: Urease inhibition assay (Berthelot alkaline phenol-hypochlorite method). Format: biochemical, rumen bacteria of Chinese Holstein dairy cows. As for the experimental part:
Rumen fluid samples were collected from five Chinese Holstein dairy cows with permanent rumen fistula 3 h after feeding a total mixed ration in the morning. All the operations were conducted in accordance with the protocol approved by the Animal Care and Use Committee for Livestock of the Institute of Animal Sciences, Chinese Academy of Agricultural Sciences (Permit Number: IAS2019-14, Permit Date: 22-03-2019). All rumen fluid samples were filtered by a six layer sterilized medical gauze and mixed in a sterilized beaker before being evenly distributed into different 50 mL tubes and stored in liquid nitrogen. The deforested samples were centrifuged at 12,000× g for 10 min at 4 °C, then the supernatant was removed from the tube. The remaining sediments were resuspended in a HEPES buffer solution (pH 7.5, 50 mM) and then centrifuged at 12,000× g for 10 min at 4 °C. The supernatant was discarded and the remaining rumen bacteria were collected and stored at −80 °C for later urease extraction. All the sample handing processes were conducted on an ice bath. […]
In vitro urease inhibition screening assays were conducted to further narrow the virtual screened compounds for further IC50 determination and kinetic characterization. […] The ammonia that was produced was measured using 50 μL of a phenol reagent containing 10.0 g/L phenol and 50 mg/L of sodium nitroprusside, and 50 μL of alkali reagent containing 5 g/L sodium hydroxide and 8.4 mL/L of sodium hypochlorite solution, at 37 °C for 30 min. The absorbance of each well was measured at 625 nm by a micro plate spectrophotometer (Thermo Scientific Varioskan Flash G-282, Thermo Scientific, Waltham, MA, USA). The endogenous nitrogen (blank) was measured by adding a 70 μL HEPES buffer (pH 7.5, 50 mM) containing no urea and 20 μL methanol solution in the first 30 min of the reaction mixture. The 100% initial activity was determined by adding a 15 μL methanol solution in the first 30 min of the reaction mixture. […]

In the case of `COc1ccc(-c2ccc(CCC(=O)O)n2NC(N)=O)cc1` [6238-0047, 3-[1-[(aminocarbonyl)amino]-5-(4-methoxyphenyl)-1H-pyrrol-2-yl] propanoic acid], the “24 h degradation rate” value in the data set on ruminal microbiota (first-generation ruminal microbial culture) is 3.32%; in the data set with ruminal microbiota (sixth generation ruminal microbial culture), 16.00%. In addition, in the data set with ruminal microbial urease (0.5 mM compound, compared with other candidate compounds), the “Percentage of inhibition against ruminal microbial urease” value is reported as “superior ruminal microbial urease inhibition capacity”. The compound further yielded an IC50 in the data set on ruminal microbial urease (ruminal microbial urease, 37 °C, 30 min, pH 7.5) of 65.9 µM.
